Data from ChEMBL document CHEMBL4417631, “Oral peptide inhibitors of interleukin-23 receptor and their use to treat inflammatory bowel diseases” (2017).
*1 amine or outer side, *2 acyl side, *3 side chain or, on linkers, in order; H or OH if unused. Where a SMILES comes first, the peptide text is derived from it. Bridges are numbered along the chain shown (N, C = ends). Roman numbers before positions name the chains, in order. [ ]: non-standard residue; d: D form. Abu(4-yl) = O=C([C@H](CC[*:3])N[*:1])[*:2]; 2Nal = N[C@@H](Cc1ccc2ccccc2c1)C(=O)O; Diglycolyl = O=C(COCC(=O)[*:2])[*:1]; AEF = NCCOc1ccc(C[C@H](N)C(=O)O)cc1; Pen = CC(C)(S)[C@H](N)C(=O)O; Aib = CC(C)(N)C(=O)O

Assays:
Interleukin-23 receptor [1] = biological target: T1, Interleukin-23 receptor (Homo sapiens, UniProt Q5VWK5); assay: Inhibition of interleukin-23 binding to human interleukin-23 receptor incubated for 2 hrs by competitive binding ELISA
T1 sequence (Q5VWK5 whole entry): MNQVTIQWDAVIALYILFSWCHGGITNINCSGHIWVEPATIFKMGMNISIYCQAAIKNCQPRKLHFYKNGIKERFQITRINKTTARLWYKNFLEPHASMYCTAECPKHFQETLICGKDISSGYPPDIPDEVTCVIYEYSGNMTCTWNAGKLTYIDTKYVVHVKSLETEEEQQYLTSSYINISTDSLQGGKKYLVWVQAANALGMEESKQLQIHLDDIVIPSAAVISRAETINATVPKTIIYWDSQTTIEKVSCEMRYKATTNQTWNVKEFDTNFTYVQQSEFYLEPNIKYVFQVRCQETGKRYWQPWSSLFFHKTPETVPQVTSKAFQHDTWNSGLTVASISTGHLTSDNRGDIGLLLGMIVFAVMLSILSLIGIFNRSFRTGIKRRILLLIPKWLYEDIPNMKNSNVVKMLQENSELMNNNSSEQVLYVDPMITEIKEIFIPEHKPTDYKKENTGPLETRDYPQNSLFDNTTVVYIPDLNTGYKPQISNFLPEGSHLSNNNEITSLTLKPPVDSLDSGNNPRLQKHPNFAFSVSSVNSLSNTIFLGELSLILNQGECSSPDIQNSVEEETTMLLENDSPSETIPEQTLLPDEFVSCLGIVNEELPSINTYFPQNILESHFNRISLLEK

Interleukin-23 receptor [2] = biological target: T1, Interleukin-23 receptor; assay: Inhibition of interleukin-23 receptor in human DB cells assessed as reduction in IL-23-stimulated STAT3 phosphorylation incubated for 30 mins by HTRF assay; format: cell-based

IC50 (Interleukin-23 receptor [1]) [nM] | IC50 (Interleukin-23 receptor [2]) [nM] | SMILES
100 to 1000 | 25 to 100 | COc1ccc(C[C@H](NC(=O)[C@@H](NC(=O)[C@H](CCC(N)=O)NC(=O)[C@H](Cc2c[nH]c3ccccc23)NC(=O)[C@@H](NC(=O)[C@H](CCC(N)=O)NC(=O)[C@@H](NC(C)=O)C(C)(C)S)[C@@H](C)O)C(C)(C)S)C(=O)N[C@@H](Cc2ccc3ccccc3c2)C(=O)N[C@@](C)(CCCN)C(=O)N[C@@H](CCCCNC(C)=O)C(=O)N[C@@H](CC(N)=O)C(=O)NCC(N)=O)cc1
> 10000 | > 1000 | CC(=O)N[C@@H](CS)C(=O)N[C@@H](CCC(N)=O)C(=O)N[C@H](C(=O)N[C@@H](Cc1c[nH]c2ccccc12)C(=O)N[C@@H](CCC(N)=O)C(=O)N[C@@H](CS)C(=O)N[C@@H](Cc1ccc(O)cc1)C(=O)N[C@@H](Cc1c[nH]c2ccccc12)C(=O)N[C@@H](CCC(C)C)C(=O)N[C@@H](CCC(=O)O)C(=O)N[C@@H](CC(N)=O)C(=O)NCC(=O)N[C@@H](CCCNC(=N)N)C(N)=O)[C@@H](C)O
25 to 100 | 10 to 25 | CC(=O)N[C@H]1CCSC[C@@H](C(=O)N[C@@H](Cc2ccc(F)c(F)c2)C(=O)N[C@@H](Cc2ccc3ccccc3c2)C(=O)NC(C)(C)C(=O)N[C@@H](CCC(=O)O)C(=O)N[C@@H](CC(N)=O)C(=O)NCC(N)=O)NC(=O)[C@H](CCC(N)=O)NC(=O)[C@H](Cc2c[nH]c3ccccc23)NC(=O)[C@H]([C@@H](C)O)NC(=O)[C@H](CCC(N)=O)NC1=O
10 to 25 | < 10 | CC(=O)N[C@H](C(=O)NCC(=O)N[C@H](C(=O)N[C@@H](Cc1c[nH]c2ccccc12)C(=O)N[C@@H](CCC(N)=O)C(=O)N[C@H](C(=O)N[C@@H](Cc1ccc(OCCN)cc1)C(=O)N[C@@H](Cc1ccc2ccccc2c1)C(=O)N[C@@](C)(CCCCN)C(=O)N[C@@H](CCC(=O)O)C(=O)N[C@@H](CC(N)=O)C(=O)NCC(N)=O)C(C)(C)S)[C@@H](C)O)C(C)(C)S
25 to 100 | < 10 | CC(=O)NCCCC[C@H](NC(=O)[C@](C)(CCCCN)NC(=O)[C@H](Cc1c[nH]c2ccccc12)NC(=O)[C@H](Cc1ccc(OCCN)cc1)NC(=O)[C@@H]1CSCC[C@H](NC(C)=O)C(=O)N[C@@H](CCC(N)=O)C(=O)N[C@@H]([C@@H](C)O)C(=O)N[C@@H](Cc2c[nH]c3ccccc23)C(=O)N[C@@H](CCC(N)=O)C(=O)N1)C(=O)NC1CNC(=O)CNC1=O (some centres not stated)
100 to 1000 | 100 to 1000 | CC(=O)N[C@@H](CS)C(=O)N[C@@H](C)C(=O)N[C@@H](CC(=O)O)C(=O)N[C@@H](Cc1c[nH]c2ccccc12)C(=O)N[C@H](C(=O)N[C@@H](CS)C(=O)N[C@@H](Cc1ccc(O)cc1)C(=O)N[C@@H](Cc1c[nH]c2ccccc12)C(=O)N[C@H](Cc1cnc[nH]1)C(=O)N[C@H](C(=O)N[C@@H](Cc1ccccc1)C(=O)NCC(=O)NCCOCC(=O)N[C@H](CCCCN)C(N)=O)[C@@H](C)O)C(C)C
– | < 10 | CC(=O)NCCCC[C@H](NC(=O)C(C)(C)NC(=O)[C@H](Cc1ccc2ccccc2c1)NC(=O)[C@H](Cc1ccc(OCCN)cc1)NC(=O)[C@@H](NC(=O)[C@H](CCC(N)=O)NC(=O)[C@H](Cc1c[nH]c2ccccc12)NC(=O)[C@@H](NC(=O)[C@H](CCC(N)=O)NC(=O)[C@@H](NC(=O)[C@H](CCCNC(=N)N)NC(C)=O)C(C)(C)S)[C@@H](C)O)C(C)(C)S)C(=O)N[C@@H](CC(N)=O)C(=O)N[C@@H](CC(N)=O)C(N)=O
– | 25 to 100 | CC(=O)NCCCC[C@H](NC(=O)[C@](C)(CCCCN)NC(=O)[C@H](Cc1ccc2ccccc2c1)NC(=O)[C@H](Cc1ccc(OCCN)cc1)NC(=O)[C@@H]1CSCC[C@H](NC(C)=O)C(=O)N[C@@H](CCC(N)=O)C(=O)N[C@@H]([C@@H](C)O)C(=O)N[C@@H](Cc2c[nH]c3ccccc23)C(=O)N[C@@H](CCC(N)=O)C(=O)N1)C(=O)N[C@@H](CC(=O)NCCCCN)C(=O)NCC(N)=O
25 to 100 | 10 to 25 | CC(=O)N[C@H]1CCSC[C@@H](C(=O)N[C@@H](Cc2ccc(OCCNC(=O)COCC(=O)NCCOc3ccc(C[C@H](NC(=O)[C@@H]4CSCC[C@H](NC(C)=O)C(=O)N[C@@H](CCC(N)=O)C(=O)N[C@@H]([C@@H](C)O)C(=O)N[C@@H](Cc5c[nH]c6ccccc56)C(=O)N[C@@H](CCC(N)=O)C(=O)N4)C(=O)N[C@@H](Cc4ccc5ccccc5c4)C(=O)NC(C)(C)C(=O)N[C@@H](CCC(N)=O)C(=O)N[C@@H](CC(N)=O)C(=O)NCC(N)=O)cc3)cc2)C(=O)N[C@@H](Cc2ccc3ccccc3c2)C(=O)NC(C)(C)C(=O)N[C@@H](CCC(N)=O)C(=O)N[C@@H](CC(N)=O)C(=O)NCC(N)=O)NC(=O)[C@H](CCC(N)=O)NC(=O)[C@H](Cc2c[nH]c3ccccc23)NC(=O)[C@H]([C@@H](C)O)NC(=O)[C@H](CCC(N)=O)NC1=O (I: Ac-[Abu(4-yl)]QTWQC[AEF][2Nal][Aib]QNG-NH2 / II: Ac-[Abu(4-yl)]QTWQC[AEF][2Nal][Aib]QNG-NH2; thioether I:1-I:6, II:1-II:6; linker I:7-II:7 via Diglycolyl)
100 to 1000 | 100 to 1000 | CC(=O)N[C@@H](CS)C(=O)N[C@H](C(=O)N[C@@H](CC(=O)O)C(=O)N[C@@H](Cc1c[nH]c2ccccc12)C(=O)N[C@@H](CCCCN)C(=O)N[C@@H](CS)C(=O)N[C@@H](Cc1ccc(O)cc1)C(=O)N[C@@H](Cc1c[nH]c2ccccc12)C(=O)N[C@@H](Cc1cnc[nH]1)C(=O)N[C@H](C(=O)N[C@@H](Cc1ccccc1)C(=O)NCC(N)=O)[C@@H](C)O)[C@@H](C)O
< 10 | < 10 | CC(=O)N[C@H](C(=O)N[C@@H](CC(N)=O)C(=O)N[C@H](C(=O)N[C@@H](Cc1c[nH]c2ccccc12)C(=O)N[C@@H](CCC(N)=O)C(=O)N[C@H](C(=O)N[C@@H](Cc1ccc(OCCN)cc1)C(=O)N[C@@H](Cc1ccc2ccccc2c1)C(=O)N[C@@](C)(CCCCN)C(=O)N[C@@H](CCC(=O)O)C(=O)N[C@@H](CC(N)=O)C(=O)NCC(N)=O)C(C)(C)S)[C@@H](C)O)C(C)(C)S
– | < 10 | COc1ccc(C[C@H](NC(=O)[C@@H](NC(=O)[C@H](CCC(N)=O)NC(=O)[C@H](Cc2c[nH]c3ccccc23)NC(=O)[C@@H](NC(=O)[C@H](CCC(N)=O)NC(=O)[C@@H](NC(C)=O)C(C)(C)S)[C@@H](C)O)C(C)(C)S)C(=O)N[C@@H](Cc2ccc3ccccc3c2)C(=O)N[C@](C)(C(=O)N[C@@H](CCCCNC(C)=O)C(=O)N[C@@H](CC(N)=O)C(=O)N[C@@H](CC(N)=O)C(=O)N[C@@H](N)CCCCN)C(C)C)cc1
– | 76 | CCCCCCCC[C@H](NC(=O)[C@H](Cc1c[nH]c2ccccc12)NC(=O)[C@H](Cc1ccc(O)cc1)NC(=O)[C@H](CS)NC(=O)[C@H](CCC(N)=O)NC(=O)[C@H](Cc1c[nH]c2ccccc12)NC(=O)[C@@H](NC(=O)[C@H](CCC(N)=O)NC(=O)[C@H](CS)NC(C)=O)[C@@H](C)O)C(=O)N[C@@H](CCC(=O)O)C(=O)N[C@@H](CC(N)=O)C(=O)NCC(N)=O
– | < 10 | COc1ccc(C[C@H](NC(=O)[C@@H](NC(=O)[C@H](CCC(N)=O)NC(=O)[C@H](Cc2c[nH]c3ccccc23)NC(=O)[C@@H](NC(=O)[C@H](CCC(N)=O)NC(=O)[C@@H](NC(C)=O)C(C)(C)S)[C@@H](C)O)C(C)(C)S)C(=O)N[C@@H](Cc2ccc3ccccc3c2)C(=O)NC(C)(C)C(=O)N[C@@H](CCCCNC(C)=O)C(=O)N[C@@H](CC(N)=O)C(=O)N[C@@H](C)C(N)=O)cc1
– | < 10 | CC(=O)NCCCC[C@H](NC(=O)C(C)(C)NC(=O)[C@H](Cc1ccc2ccccc2c1)NC(=O)[C@H](Cc1ccc(OCCN)cc1)NC(=O)[C@@H](NC(=O)[C@H](CCC(N)=O)NC(=O)[C@H](Cc1c[nH]c2ccccc12)NC(=O)[C@@H](NC(=O)[C@H](CCC(N)=O)NC(=O)[C@@H](NC(=O)[C@H](Cc1ccccc1)NC(C)=O)C(C)(C)S)[C@@H](C)O)C(C)(C)S)C(=O)N[C@@H](CC(N)=O)C(=O)N[C@@H](CC(N)=O)C(N)=O
– | < 10 | CC(=O)NCCCC[C@H](NC(=O)C(C)(C)NC(=O)[C@H](Cc1ccc2ccccc2c1)NC(=O)[C@H](Cc1ccc(OCCN)cc1)NC(=O)[C@@H](NC(=O)[C@H](CCC(N)=O)NC(=O)[C@H](Cc1c[nH]c2ccccc12)NC(=O)[C@@H](NC(=O)[C@H](CCC(N)=O)NC(=O)[C@@H](NC(=O)[C@H](CC(C)C)NC(C)=O)C(C)(C)S)[C@@H](C)O)C(C)(C)S)C(=O)N[C@@H](CC(N)=O)C(=O)N[C@@H](CC(N)=O)C(N)=O (Ac-L[Pen]QTWQ[Pen][AEF][2Nal][Aib]K(Ac)NN-NH2)
– | < 10 | CC(=O)NCCCC[C@H](NC(=O)C(C)(C)NC(=O)[C@H](Cc1ccc2ccccc2c1)NC(=O)[C@H](Cc1ccc(OCCN)cc1)NC(=O)[C@@H](NC(=O)[C@H](CCC(N)=O)NC(=O)[C@H](Cc1c[nH]c2ccccc12)NC(=O)[C@@H](NC(=O)[C@H](CCC(N)=O)NC(=O)[C@@H](NC(=O)[C@@H](CCCNC(=N)N)NC(C)=O)C(C)(C)S)[C@@H](C)O)C(C)(C)S)C(=O)N[C@@H](CC(N)=O)C(=O)N[C@@H](CC(N)=O)C(N)=O
– | < 10 | CC(=O)NCCCC[C@H](NC(=O)C(C)(C)NC(=O)[C@H](Cc1ccc2ccccc2c1)NC(=O)[C@H](Cc1ccc(OCCN)cc1)NC(=O)[C@@H](NC(=O)[C@H](CCC(N)=O)NC(=O)[C@H](Cc1c[nH]c2ccccc12)NC(=O)[C@@H](NC(=O)[C@H](CCC(N)=O)NC(=O)[C@@H](NC(=O)[C@@H](NC(C)=O)[C@@H](C)O)C(C)(C)S)[C@@H](C)O)C(C)(C)S)C(=O)N[C@@H](CC(N)=O)C(=O)N[C@@H](CC(N)=O)C(N)=O (Ac-T[Pen]QTWQ[Pen][AEF][2Nal][Aib]K(Ac)NN-NH2)
